Results: publication PMC7288559 (ACS Omega, 2020)

Assays:
[1] = test system: hepatocellular carcinoma cells Snu-398; format: cell-based; conditions: lactate in supernatant
[2] = test system: pancreatic carcinoma cells MIA PaCa-2; format: cell-based; conditions: lactate in supernatant
recombinant human LDHA = recombinant human LDHA (Homo sapiens, UniProt P00338); assay: LDHA enzymatic assay based on NADH cofactor consumption [NAD; format: biochemical; conditions: in vitro, dose-dependent

Inhibition of lactate production by recombinant human LDHA (recombinant human LDHA)	SMILES	Inhibition of lactate production in cells [1]	Inhibition of lactate production in cells [2]
completely inhibited	O=C(Nc1cccc(NS(=O)(=O)c2ccc3oc4cc([N+](=O)[O-])ccc4c3c2)c1)C1(O)CC1 [Compound 7, 1-hydroxy-N-(3-{[(7-nitrodibenzo[b,d]furan-2-yl)sulfonyl]amino}phenyl)cyclopropanecarboxamide]	neither 3 nor 7 showed inhibition	neither 3 nor 7 showed inhibition
completely inhibited	O=C(O)c1ccc(CN2C(=O)c3cccc(NC(=O)c4ccc(Cl)s4)c3C2=O)cc1 [Compound 3, 4-[(4-{[(5-chloro-2-thienyl)carbonyl]amino}-1,3-dioxo-1,3-dihydro-2H-isoindol-2-yl)methyl]benzoic acid]	neither 3 nor 7 showed inhibition	neither 3 nor 7 showed inhibition
